Assay results published in patent US4423071A, “Polyol derivatives, processes for preparing the same and their uses in therapeutics” (Sanofi, priority 1979, dated 1983).
“Also recorded” adds a separate entry of the source. Where two headings read alike, the source gives them in different places.

Experiments:
[1] = tested on: Pentylenetetrazol-induced seizure; test: Pentylenetetrazol-induced seizure (anticonvulsant action); type: in vivo; details: rats, oral, ester 600 mg/kg, acid 100 mg/kg, pentylenetetrazol 125 mg/kg i.p.
Protocol: The results of trials performed with such di-n-propylacetyl derivatives in order to determine the anticonvulsant action are set out below.
The anticonvulsant action was determined using pentylenetetrazol as convulsant agent.
Batches of 10 rats were treated by oral route with a dose of 600 mg/kg of glyceryl 1-(di-n-propylacetate).
At various times after administration, the animals received an intraperitoneal dose of 125 mg/kg of pentylenetetrazol.
The percentage of protection against the convulsive seizure was then determined at each of the times in question.
A similar trial was carried out with 100 mg/kg of di-n-propylacetic acid.
This dose represents the amount of di-n-propylacetic acid required to provide a di-n-propylacetic acid blood-level equivalent to the maximum level obtained with 600 mg/kg of glyceryl 1-(di-n-propylacetate). The results obtained are given in the following Table in which are shown the percentage of protection achieved at the various times indicated: […]

[2] = Pharmacokinetic trials with animals (species not specified), release of parent acid; type: in vivo, animal
[3] = tested on: rats; test: Acute toxicity tests in rats; details: rat, in vivo
Excerpt: (§1) The results of acute toxicity tests obtained with compounds of the invention are given below:

[4] = set-up: species or system humans; details: in vivo
Protocol: FIG. 8: represents blood-levels in di-n-propylacetic acid obtained from:
(a) An oral dose of 600 mg of glyceryl 1-(di-n-propylacetate) (Curve 1)
(b) An oral dose of 476 mg of glyceryl 1,2-bis-(-di-n-propylacetate) (Curve 2)
(c) An oral dose of 460 mg of sodium di-n-propylacetate (Curve 3)
FIG. 9: represents the blood-levels in di-n-propylacetic acid obtained from the oral administration of 1000 mg of glyceryl 1,2-bis-(di-n-propylacetate) every 24 hours for 4 days.
FIG. 10: represents the blood-levels in di-n-propylacetic acid obtained from:
(a) An oral dose of 1000 mg of mixtures of glyceryl 1,2-bis-(di-n-propylacetate)/glyceryl 1,3-bis-(di-n-propylacetate)
("Mixtures A and B" referred to above) (Curves 1 to 5)
(b) An oral dose of 1000 mg of sodium di-n-propylacetate (Curve 6)
FIG. 11: represents the blood-levels in di-n-propylacetic acid obtained from an oral dose of 1000 mg of 1,2-propanediol bis-(di-n-propylacetate).

[5] = Acute toxicity tests in mice; details: mouse, in vivo, oral route
[6] = set-up: species or system rats; details: rat, in vivo, po, 600 mg/kg
Protocol: The first series of drawings represent blood-levels in acid of formula I above in relation to time, this acid being either released from a salt thereof or from an ester of the invention.
FIG. 1: represents blood-levels in di-n-propylacetic acid obtained from:
(a) An oral dose to rats of 600 mg/kg of either: glyceryl 1-(di-n-propylacetate) (Curve 1) or glyceryl 1,2-bis-(di-n-propylacetate) (Curve 2) or glyceryl 1,3-bis-(di-n-propylacetate) (Curve 3)
(b) An intravenous dose to rats of 200 mg/kg of sodium di-n-propylacetate (Curve 4) […] FIG. 6: represents blood-levels in di-n-propylacetic acid obtained from: […]
(b) An intravenous dose to rats of 200 mg/kg of sodium di-n-propylacetate (Curve 3) FIG. 7: represents blood-levels in di-n-propylacetic acid obtained from:
1,4-butanediol bis-(di-n-propylacetate) (Curve 1) or 2-buten-1,4-diol bis-(di-n-propylacetate) (cis isomer) (Curve 2) or 2-butyn-1,4-diol bis-(di-n-propylacetate) (Curve 3)

[7] = Acute toxicity tests in rats; details: rat, in vivo; rats, oral route
Excerpt: as §1

[8] = in vivo; cited from earlier work
[9] = tested on: Chronic cobalt-induced epilepsy; test: Chronic cobalt-induced epilepsy; type: in vivo, rats; details: 14 days i.p., sodium salt 2 x 200 mg/kg daily, Mixture A 400 mg/kg daily
Protocol: This trial was performed in comparison with sodium di-n-propylacetate. Batches of rats were given for 14 days either two daily intraperitoneal doses of 200 mg/kg (morning and evening) of sodium di-n-propylacetate or a daily intraperitoneal dose of 400 mg/kg (evening) of a mixture of glyceryl 1,2- and 1,3-bis-(di-n-propylacetates) ("Mixture A").

| SMILES | percentage of protection against the convulsive seizure ([1]; 0.5 h) [%] | percentage of protection against the convulsive seizure ([1]; 1 h) [%] | percentage of protection against the convulsive seizure ([1]; 2 h) [%] | percentage of protection against the convulsive seizure ([1]; 4 h) [%] | percentage of protection against the convulsive seizure ([1]; 8 h) [%] | percentage of protection against the convulsive seizure ([1]; 16 h) [%] | release of di-n-propylacetic acid in the animal organism [2] | slow-release of di-n-propylacetic acid in the human body ([4]; po) | LD50 [5] [mg/kg] | LD50 [7] [mg/kg] | other results |
| --- | --- | --- | --- | --- | --- | --- | --- | --- | --- | --- | --- |
| CCCC(CCC)C(=O)O [di-n-propylacetic acid, reference compound] | 23 | 0 | 0 | 0 | 0 | 0 | – | – | – | – | – |
| CCCC(CCC)C(=O)OCC(CO)OC(=O)C(CCC)CCC (stereo not shown) [glyceryl 1,2-bis-(di-n-propylacetate), Glyceryl 1,2-bis-(di-n-propylacetate)] | – | – | – | – | – | – | possess the requisite qualities to enable di-n-propylacetic acid to be released in the animal organism at a decreasing rate | can provide the slow-release of di-n-propylacetic acid in the human body to a degree which enables therapeutic blood-levels in this acid to be attained | – | – | LD0 ([3]; ip): > 2000 mg/kg; LD0 ([3]; po): > 5000 mg/kg |
| CCCC(CCC)C(=O)OCC(O)COC(=O)C(CCC)CCC [glyceryl 1,3-bis-(di-n-propylacetate), Glyceryl 1,3-bis-(di-n-propylacetate)] | – | – | – | – | – | – | possess the requisite qualities to enable di-n-propylacetic acid to be released in the animal organism at a decreasing rate | can provide the slow-release of di-n-propylacetic acid in the human body to a degree which enables therapeutic blood-levels in this acid to be attained | – | – | bioavailability compared with the 1,2-diester [4]: better bioavailability than that of the corresponding 1,2-diester; blood-levels in di-n-propylacetic acid compared with the 1,2-diester [4]: Very similar results |
| CCCC(CCC)C(=O)OCC(O)CO (stereo not shown) [glyceryl 1-(di-n-propylacetate), Glyceryl 1-(di-n-propylacetate)] | 29 | 56 | 41 | 43 | 35 | 22 | possess the requisite qualities to enable di-n-propylacetic acid to be released in the animal organism at a decreasing rate | quite unable to induce a slow-release in di-n-propylacetic acid in the blood | 3360 | 2360 | blood-levels in di-n-propylacetic acid (FIG. 1) [6]: resists the rapid elimination of this acid and maintains a high blood-level in this acid; metabolism to glycerol and di-n-propylacetic acid [4]: too rapid |
| CCCC(CCC)C(=O)OCC(COC(=O)C(CCC)CCC)OC(=O)C(CCC)CCC [glyceryl tri-(di-n-propylacetate)] | – | – | – | – | – | – | – | – | – | – | bioavailability [6]: poor bioavailability; maximum blood-levels in di-n-propylacetic acid [6]: ≤ 10 µg/mL; time until di-n-propylacetic acid appeared in the blood [6]: ≥ 150 min; value as a slow-release form of di-n-propylacetic acid [6]: of no value as a slow-release form of di-n-propylacetic acid; slow-release properties as reported in the literature [8]: a remarkably useful substance which has all the properties expected of a slow-release preparation; also recorded: can act as a slow-release form of di-n-propylacetic acid; bioavailability ([4]; po): poor bioavailability |
| CCCC(CCC)C(=O)[O-].[Na+] [sodium di-n-propylacetate, reference compound] | – | – | – | – | – | – | – | – | 1700 | 1530 | Number of seizures between the 7th and 14th day ([9]; controls 3.57): 1.25; Number of rats presenting at least one seizure ([9]; controls 7/7): 3/4; apparent half-life of di-n-propylacetic acid ([4]; human, po): 11 h 35 min h min |
